Where a SMILES comes first, the peptide text is derived from it. Bridges are numbered along the chain shown (N, C = ends).
How the values were obtained:
[1] = tested on: motor performance of mice; experiment: Motor assessment, Parallel Rod Floor Test; format: in vivo; details: i.p.; Pnc1a 3 mg/kg, PF-04856254 30 mg/kg, CNV1014802 30 mg/kg, GpTx-1 0.1 mg/kg, gabapentin 100 mg/kg
Description: (§1) For behavioural assessment adult male C57BL/6J mice aged 6-8 weeks were used. Animals were housed in groups of 3 or 4 per cage, under 12 h light-dark cycles and had standard rodent chow and water ad libitum.
Motor performance was assessed using the Parallel Rod Floor Test and analyzed using ANY-Maze software (Stoelting Co., version 4.70, Wood Dale, Ill., USA). […] Mice were then placed in the Parallel Rod Floor Test apparatus, and the distance travelled (m) and number of foot slips were recorded over 1 min using the ANY-Maze software. The ataxia index was calculated by dividing the number of foot slips by the distance travelled (m).

hNav1.4 = biological target: T1, hNav1.4 (Homo sapiens, UniProt P35499); experiment: FLIPR membrane potential assay, hNav1.4; format: cell-based
T1 construct: host or cells: HEK293
T1 sequence (P35499 whole entry): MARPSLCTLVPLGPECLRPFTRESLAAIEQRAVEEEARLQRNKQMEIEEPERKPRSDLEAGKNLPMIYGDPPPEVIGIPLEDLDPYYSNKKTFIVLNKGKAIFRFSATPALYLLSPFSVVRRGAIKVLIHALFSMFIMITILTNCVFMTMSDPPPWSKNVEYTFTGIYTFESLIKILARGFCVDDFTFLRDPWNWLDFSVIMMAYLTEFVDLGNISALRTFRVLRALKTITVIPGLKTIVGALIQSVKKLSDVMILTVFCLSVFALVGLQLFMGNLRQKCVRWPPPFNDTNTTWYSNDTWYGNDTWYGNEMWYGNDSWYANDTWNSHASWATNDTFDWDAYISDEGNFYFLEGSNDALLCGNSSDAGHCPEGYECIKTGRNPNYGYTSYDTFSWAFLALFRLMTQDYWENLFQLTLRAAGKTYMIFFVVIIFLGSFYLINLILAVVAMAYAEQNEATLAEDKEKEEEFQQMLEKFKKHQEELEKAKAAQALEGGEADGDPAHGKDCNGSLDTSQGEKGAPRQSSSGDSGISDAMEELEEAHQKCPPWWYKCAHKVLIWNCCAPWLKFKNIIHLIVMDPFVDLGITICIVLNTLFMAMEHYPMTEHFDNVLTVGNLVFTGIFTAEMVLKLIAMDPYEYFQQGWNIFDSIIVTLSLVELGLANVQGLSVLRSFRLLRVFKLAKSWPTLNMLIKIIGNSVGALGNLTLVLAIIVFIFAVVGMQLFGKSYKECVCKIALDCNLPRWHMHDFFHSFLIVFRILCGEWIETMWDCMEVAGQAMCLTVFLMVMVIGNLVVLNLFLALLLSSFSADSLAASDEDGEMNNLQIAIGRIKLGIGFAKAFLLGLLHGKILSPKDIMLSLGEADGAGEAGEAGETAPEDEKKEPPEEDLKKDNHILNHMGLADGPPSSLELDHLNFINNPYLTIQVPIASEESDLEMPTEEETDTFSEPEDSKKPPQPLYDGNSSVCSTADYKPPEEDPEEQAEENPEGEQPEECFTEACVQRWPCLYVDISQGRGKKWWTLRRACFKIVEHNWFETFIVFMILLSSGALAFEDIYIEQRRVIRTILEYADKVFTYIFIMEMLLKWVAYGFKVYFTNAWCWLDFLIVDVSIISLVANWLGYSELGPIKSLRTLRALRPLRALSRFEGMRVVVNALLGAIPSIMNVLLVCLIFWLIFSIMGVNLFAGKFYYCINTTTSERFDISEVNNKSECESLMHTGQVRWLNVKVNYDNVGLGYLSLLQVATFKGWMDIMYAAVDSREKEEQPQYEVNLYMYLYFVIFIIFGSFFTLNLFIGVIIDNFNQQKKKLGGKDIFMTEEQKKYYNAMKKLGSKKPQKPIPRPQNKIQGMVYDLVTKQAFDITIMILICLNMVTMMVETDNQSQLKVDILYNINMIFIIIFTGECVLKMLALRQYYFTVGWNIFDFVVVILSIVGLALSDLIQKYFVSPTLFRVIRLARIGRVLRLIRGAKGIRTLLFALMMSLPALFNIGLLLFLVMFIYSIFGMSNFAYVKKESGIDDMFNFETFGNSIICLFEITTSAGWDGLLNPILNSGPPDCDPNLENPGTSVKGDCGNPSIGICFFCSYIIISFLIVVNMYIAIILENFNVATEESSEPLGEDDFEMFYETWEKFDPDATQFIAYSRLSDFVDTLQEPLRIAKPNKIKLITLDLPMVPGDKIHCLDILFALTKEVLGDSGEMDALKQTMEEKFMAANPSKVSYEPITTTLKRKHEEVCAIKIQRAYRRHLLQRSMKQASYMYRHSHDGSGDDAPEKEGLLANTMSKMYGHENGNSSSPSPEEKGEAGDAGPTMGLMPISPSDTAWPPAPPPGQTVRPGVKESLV
Summary of the method: (§2)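 Human Nav channels, each stably expressed in HEK293; agonist-evoked depolarisation monitored via red membrane potential dye on FLIPR^TETRA.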

hNav1.5 = biological target: T2, hNav1.5 (Homo sapiens, UniProt Q14524); experiment: FLIPR membrane potential assay, hNav1.5; format: cell-based
T2 construct: host or cells: HEK293
Summary of the method: as §2

hNav1.6 = biological target: T3, hNav1.6 (Homo sapiens, UniProt Q9UQD0); experiment: FLIPR membrane potential assay, hNav1.6; format: cell-based
T3 construct: host or cells: HEK293
Summary of the method: as §2

hNav1.1 = biological target: T4, hNav1.1 (Homo sapiens, UniProt P35498); experiment: FLIPR membrane potential assay, hNav1.1; format: cell-based
T4 construct: host or cells: HEK293
Summary of the method: as §2

hNav1.3 = biological target: T5, hNav1.3 (Homo sapiens, UniProt Q9NY46); experiment: FLIPR membrane potential assay, hNav1.3; format: cell-based
T5 construct: host or cells: HEK293
Summary of the method: as §2

hNav1.8 = biological target: T6, hNav1.8 (Homo sapiens, UniProt Q9Y5Y9); experiment: FLIPR membrane potential assay, hNav1.8; format: cell-based
T6 construct: host or cells: HEK293
Summary of the method: as §2

hNav1.7 [2] = biological target: T7, hNav1.7 (Homo sapiens, UniProt Q15858); experiment: Automated patch clamping (QPatch-16), hNav1.7; format: cell-based; details: 100 nM
T7 construct: host or cells: HEK293
T7 sequence (Q15858 whole entry): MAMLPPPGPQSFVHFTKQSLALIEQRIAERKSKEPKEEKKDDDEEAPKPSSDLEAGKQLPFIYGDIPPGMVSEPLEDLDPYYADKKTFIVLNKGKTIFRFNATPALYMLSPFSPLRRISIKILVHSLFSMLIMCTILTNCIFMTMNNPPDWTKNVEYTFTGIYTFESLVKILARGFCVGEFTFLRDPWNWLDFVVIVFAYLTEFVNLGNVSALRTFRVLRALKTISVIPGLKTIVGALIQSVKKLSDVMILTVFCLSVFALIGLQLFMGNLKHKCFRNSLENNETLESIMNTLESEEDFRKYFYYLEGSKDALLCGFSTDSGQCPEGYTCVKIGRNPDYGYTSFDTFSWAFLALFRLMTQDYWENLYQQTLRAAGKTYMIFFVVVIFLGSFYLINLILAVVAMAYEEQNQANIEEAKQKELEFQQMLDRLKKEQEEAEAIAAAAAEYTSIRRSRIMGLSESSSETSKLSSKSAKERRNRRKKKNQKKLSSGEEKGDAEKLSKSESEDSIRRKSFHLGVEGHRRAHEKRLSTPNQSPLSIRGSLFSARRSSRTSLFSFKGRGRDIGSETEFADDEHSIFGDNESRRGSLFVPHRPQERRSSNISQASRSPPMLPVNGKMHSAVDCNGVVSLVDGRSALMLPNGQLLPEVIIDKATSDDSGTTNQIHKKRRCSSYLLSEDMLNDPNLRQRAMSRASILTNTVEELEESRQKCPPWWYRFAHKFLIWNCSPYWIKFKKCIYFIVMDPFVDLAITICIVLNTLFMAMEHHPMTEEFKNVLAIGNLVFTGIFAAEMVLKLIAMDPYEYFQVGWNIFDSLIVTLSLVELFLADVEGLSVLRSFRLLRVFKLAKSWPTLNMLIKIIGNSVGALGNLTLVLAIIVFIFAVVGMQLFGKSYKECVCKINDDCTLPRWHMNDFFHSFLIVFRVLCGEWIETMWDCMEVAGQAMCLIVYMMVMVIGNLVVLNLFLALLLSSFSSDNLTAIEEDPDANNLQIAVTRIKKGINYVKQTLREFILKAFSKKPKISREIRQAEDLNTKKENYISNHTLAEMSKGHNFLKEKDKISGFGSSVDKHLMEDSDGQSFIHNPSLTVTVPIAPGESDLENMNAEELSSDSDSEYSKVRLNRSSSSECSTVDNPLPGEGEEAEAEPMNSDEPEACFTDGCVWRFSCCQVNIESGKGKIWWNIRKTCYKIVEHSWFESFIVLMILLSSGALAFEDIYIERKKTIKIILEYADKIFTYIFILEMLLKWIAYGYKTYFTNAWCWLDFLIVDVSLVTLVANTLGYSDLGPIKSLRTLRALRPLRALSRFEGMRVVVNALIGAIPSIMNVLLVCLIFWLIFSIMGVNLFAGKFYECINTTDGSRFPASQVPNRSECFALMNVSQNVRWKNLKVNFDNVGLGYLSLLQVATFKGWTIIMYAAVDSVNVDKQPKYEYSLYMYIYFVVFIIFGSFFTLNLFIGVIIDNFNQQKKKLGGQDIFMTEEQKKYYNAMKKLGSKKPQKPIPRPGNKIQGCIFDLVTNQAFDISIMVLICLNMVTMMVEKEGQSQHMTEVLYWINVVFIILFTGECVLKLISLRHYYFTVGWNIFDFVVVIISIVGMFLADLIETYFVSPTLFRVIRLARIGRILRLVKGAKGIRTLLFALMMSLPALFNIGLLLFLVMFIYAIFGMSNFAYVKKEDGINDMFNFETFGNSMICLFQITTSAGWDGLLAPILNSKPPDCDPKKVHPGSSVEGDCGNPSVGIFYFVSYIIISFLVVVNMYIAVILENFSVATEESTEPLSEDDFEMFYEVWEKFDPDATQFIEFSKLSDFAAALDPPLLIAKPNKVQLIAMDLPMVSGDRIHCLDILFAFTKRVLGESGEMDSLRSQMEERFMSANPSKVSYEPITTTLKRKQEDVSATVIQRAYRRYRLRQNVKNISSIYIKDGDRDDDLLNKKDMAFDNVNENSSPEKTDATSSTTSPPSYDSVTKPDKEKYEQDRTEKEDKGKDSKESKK
Description: HEK293 cells stably expressing hNav1.1-1.7 or CHO cells stably expressing hNav1.8 (as described in Example 3 above) were cultured in a T-175 flask in selection antibiotic-free media at 37° C. Cells were grown to 70-80% confluence and harvested using Detachin (Bio-Scientific, NSW, Australia) at 37° C. for 2 min. Dissociated cells were then resuspended in Ex-Cell ACF CHO Medium with HEPES (25 mM; Sigma-Aldrich Co.) and allowed to recover on the QStirrer for 30 min.
The extracellular solution contained in mM: NaCl 145, KCl 4, CaCl2 2, MgCl2 1, HEPES 10 and glucose 10. The pH was adjusted to 7.4 with NaOH and osmolarity was adjusted with sucrose to 305 mOsm. The intracellular solution contained in mM: CsF 140, ethylene glycol tetraacetic acid (EGTA)/CsOH 1/5, HEPES 10 and NaCl 10. The pH was adjusted to 7.3 with CsOH and osmolarity adjusted with sucrose to 320 mOsm.
Whole-cell patch-clamp experiments were performed on a QPatch-16 automated electrophysiology platform (Sophion Bioscience, Ballerup, Denmark) using 16-channel planar patch chip plates (QPlates; Sophion Bioscience) with a patch hole diameter of 1 μm and resistance of 2±0.02 MΩ with the following parameters: positioning pressure −60 mbar, minimum seal resistance 0.1 GΩ, holding potential −100 mV, holding pressure −20 mbar.
Whole-cell currents were filtered at 5 kHz and acquired at 25 kHz.
The current-voltage (IV) curve was constructed with a holding potential of −80 mV followed by a pre-pulse of −100 mV for 50 ms and a series of 50 ms step pulses that ranged from −80 to 50 mV in 5 mV increments before returning to a holding potential of −80 mV. Voltage-dependence of activation was determined as normalized Nav conductance (GNa) using: GNa=INa/(Vmemb−Vrev), where Vmemb is the membrane potential and Vrev is the reversal potential for each cell. The voltage of activation data was fitted to a Boltzmann sigmoidal curve using GraphPad Prism, version 6.0.

hNav1.7 [3] = biological target: T7, hNav1.7; experiment: FLIPR membrane potential assay, hNav1.7; format: cell-based
Summary of the method: as §2

hNav1.2 = biological target: T8, hNav1.2 (Homo sapiens, UniProt Q99250); experiment: FLIPR membrane potential assay, hNav1.2; format: cell-based
T8 construct: host or cells: HEK293
Summary of the method: as §2

[4] = tested on: carrageenan-induced mechanical and thermal allodynia in mice; experiment: Carrageenan model; format: in vivo; details: naloxone methiodide 100 mg/kg i.p.
Description: as §1
λ-Carrageenan (Sigma-Aldrich Co.) was dissolved in phosphate buffered saline to a 1% w/v solution (prepared 24 h prior) and administered by intraplantar injection to the left hind paw of mice in a volume of 40 μL under light isoflurane (3%) anaesthesia. Behavioural assessment (mechanical and thermal thresholds) was performed 3 hours after injection of carrageenan.
Mechanical allodynia was assessed using an electronic von Frey apparatus (MouseMet Electronic von Frey, TopCat Metrology Ltd, United Kingdom). […] The force that elicited paw withdrawal was calculated using the MouseMet Software. The paw withdrawal force (PWF) was determined from the average of three tests, separated by at least 2 min.
Mice were habituated in individual mouse runs for at least 5 min prior to testing. […] Removal of the paw and/or the probe by the investigator terminates heating, and triggers display of the withdrawal temperature on the readout, without the need for the investigator to manually stop the heating or record the temperature, until the reset button is pressed. The temperature that elicited a paw withdrawal, known as the paw withdrawal temperature (PWT), was determined by a single test.

[5] = tested on: OD1-induced spontaneous pain behaviours in mice; experiment: OD1 model of spontaneous pain behaviours; format: in vivo; details: intraplantar 1 μM, co-injected with OD1
Description: as §1
OD1 was diluted in phosphate-buffered saline/0.1% BSA (300 nM) and administered by shallow subcutaneous (intraplantar) injection to the left hind paw of mice in a volume of 40 μL under light isoflurane (3%) anesthesia. Mice were then placed individually into polyvinyl boxes (10×10×10 cm), and spontaneous pain behavior (licks and flinches) was counted by an investigator unaware of the treatments received from video recordings for 10 min post-injection.

## NC(=O)[C@@H]1CC[C@H](c2ccc(OCc3ccccc3F)cc2)N1 [CNV1014802, raxatrigine]
[1]
  ataxia index (foot slips per metre travelled) compared to vehicle control: no significant effect

## CSCC[C@@H]1NC(=O)[C@H](Cc2ccc(O)cc2)NC(=O)[C@H](CCCNC(=N)N)NC(=O)[C@@H](NC(=O)[C@@H](N)CC(=O)O)CSSC[C@@H]2NC(=O)[C@@H]3CSSC[C@@H](C(=O)N[C@@H](C)C(=O)N[C@@H](Cc4c[nH]c5ccccc45)C(=O)N[C@@H](CC(=O)O)C(=O)N[C@@H](Cc4ccccc4)C(=O)N[C@H](C(=O)N[C@@H](Cc4ccccc4)C(=O)N[C@H](C(=O)O)[C@@H](C)O)[C@@H](C)O)NC(=O)[C@H](Cc4ccc(O)cc4)NC(=O)[C@H](CCCCN)NC(=O)[C@H](CCSC)NC(=O)[C@H](CC(=O)O)NC(=O)[C@H](CCCNC(=N)N)NC(=O)[C@H](CCCCN)NC(=O)[C@H](CSSC[C@H](NC(=O)[C@H](CC(=O)O)NC(=O)CNC(=O)[C@H](Cc4ccccc4)NC1=O)C(=O)N[C@@H](CCC(=O)O)C(=O)N[C@@H](CCCCN)C(=O)N[C@@H](CC(=O)O)C(=O)N[C@@H](CCC(=O)O)C(=O)N[C@@H](CC(=O)O)C(=O)N3)NC(=O)CNC(=O)[C@H](CC(C)C)NC(=O)[C@H](Cc1c[nH]cn1)NC(=O)[C@H](CCCCN)NC2=O [[K24D]Pnc1a] (H-DCRYMFGDCEKDEDCCKHLGCKRDMKYCAWDFTFT-OH; disulfide 2-16, 9-21, 15-28)
hNav1.4
  IC50: 12 µM
hNav1.4; membrane potential assay
  Selectivity for Nav1.7, Nav subtype 1.4: 24
hNav1.5
  IC50: > 30 µM
hNav1.5; membrane potential assay
  Selectivity for Nav1.7, Nav subtype 1.5: 59
hNav1.6
  IC50: > 30 µM
hNav1.6; membrane potential assay
  Selectivity for Nav1.7, Nav subtype 1.6: 14
hNav1.1
  IC50: 32 µM
hNav1.1; membrane potential assay
  Selectivity for Nav1.7, Nav subtype 1.1: 63
hNav1.3
  IC50: 20 µM
hNav1.3; membrane potential assay
  Selectivity for Nav1.7, Nav subtype 1.3: 39
hNav1.8
  IC50: > 30 µM
hNav1.8; membrane potential assay
  Selectivity for Nav1.7, Nav subtype 1.8: 40
hNav1.7 [2]
  effect on the current voltage (IV) relationship of Nav1.7: minimal effect
hNav1.7 [3]
  IC50: 0.51 µM
hNav1.7 [3]; membrane potential assay, reference subtype
  Selectivity for Nav1.7, Nav subtype 1.7: 1
hNav1.2
  IC50: 38 µM
hNav1.2; membrane potential assay
  Selectivity for Nav1.7, Nav subtype 1.2: 7

## NCC1(CC(=O)O)CCCCC1 [gabapentin]
[1]
  ataxia index (foot slips per metre travelled) compared to vehicle control: significant increase

## C=CC[N+]1(C)CC[C@]23c4c5ccc(O)c4O[C@H]2C(=O)CC[C@@]3(O)[C@H]1C5 (stereo partly shown) [naloxone methiodide]
[4]
  analgesic effects of the Pnc1a/oxycodone combination on mechanical allodynia: reversed
  analgesic effects of the Pnc1a/oxycodone combination on thermal allodynia: reversed

## ProTxII: Nav1.7 selective inhibitor (Peptides International) [reference compound]
[5]
  OD1-induced pain behaviours, compared to an equivalent concentration of Pnc1a: only partially reversed
